Assay results from patent US8349880B2, “Bicyclic compounds for the reduction of beta-amyloid production” (Bristol-Myers Squibb Company, priority 2009, dated 2013).

Each compound was assayed on Aβ1-42 production (assay: Cellular assay for inhibition of Aβ1-42 production (H4 APP751 SWE clone 8.20)). Details: 19 h, H4 APP751 SWE clone 8.20 cells, 19 h incubation; read-out: Activity Rating (Aβ42 cellular IC50, given as a number).
Format: cell-based
Protocol: Cellular assays for inhibition of Aβ1-40 and Aβ1-42 production
H4 cells stably transfected with APP751 containing the Swedish mutation (H4 APP751 SWE clone 8.20, developed at BMS) were maintained in log phase through twice weekly passage at a 1:20 split. For IC50 determinations, 30 μl cells (1.5×10^4 cells/well) in DMEM media containing 0.0125% BSA (Sigma A8412) were plated directly into 384-well compound plates (Costar 3709) containing 0.1 μl serially diluted compound in DMSO. Following incubation for 19 h in 5% CO2 at 37° C., plates were briefly centrifuged (1000 rpm, 5 min). A 10 μl aliquot from each well was transferred to a second assay plate (Costar 3709) for Aβ40 measurements. Antibody cocktails were freshly prepared by dilution into 40 mM Tris-HCl (pH 7.4) with 0.2% BSA and added to assay plates. For Aβ42 measurements, antibodies specific for the Aβ42 neoepitope (565, developed at BMS; conjugated to the Wallac reagent (Perkin Elmer)) and the N-terminal sequence of Aβ peptide (26D6, developed at SIBIA; conjugated to APC (Perkin Elmer)) were mixed and 20 μl of the mixture was added to each well of the incubated cell plate yielding a final concentration of 0.8 ng/well 565 and 75 ng/well 26D6. For the Aβ40 measurements, antibodies specific for the Aβ40 neoepitope (TSD, developed at BMS; conjugated to the Wallac reagent (Perkin Elmer)) and 26D6 as described above were mixed and 20 μl of the mixture was added to the 10 μl aliquots which had been removed previously from the cell plate yielding a final concentration of 1.6 ng/well TSD and 17.5 ng/well 26D6. Assay plates containing antibodies were sealed with aluminum foil and incubated overnight at 4° C. Signal was determined using a Viewlux counter (Perkin Elmer) and IC50 values determined using curve fitting in CurveMaster (Excel Fit based).
With `Cc1nc(C)n(-c2ccc(Nc3nc4n(n3)CCCCC4c3ccc(OCC(F)F)cc3)cc2F)n1` (stereo not shown) [Example 109, 9-(4-(2,2-difluoroethoxy)phenyl)-N-(4-(3,5-dimethyl-1H-1,2,4-triazol-1-yl)-3-fluorophenyl)-6,7,8,9-tetrahydro-5H-[1,2,4]triazolo[1,5-a]azepin-2-amine 2,2,2-trifluoroacetate] the IC50 was 240 nM.
For `Cc1ncnn1-c1ccc(Nc2nc3n(n2)CC[C@H](O)C[C@@H]3c2ccc(F)cc2)cc1F` (relative stereo) [Example 156, rel-(7R,9R)-2-(3-fluoro-4-(5-methyl-1H-1,2,4-triazol-1-yl)phenylamino)-9-(4-fluorophenyl)-6,7,8,9-tetrahydro-5H-[1,2,4]triazolo[1,5-a]azepin-7-ol 2,2,2-trifluoroacetate], the IC50 was 122 nM.
For `Cc1ncn(-c2ccc(Nc3nc4n(n3)CCCC[C@H]4c3ccc(OC(F)(F)F)cc3)cc2F)n1` (single isomer, unassigned) [Example 97], the IC50 was 9 nM.
`Cc1ncn(-c2ccc(Nc3nc4n(n3)CCCC4c3ccc(F)cc3)cc2C#N)n1` (stereo not shown) [Example 11, 5-(8-(4-fluorophenyl)-5,6,7,8-tetrahydro-[1,2,4]triazolo[1,5-a]pyridin-2-ylamino)-2-(3-methyl-1H-1,2,4-triazol-1-yl)benzonitrile, 2,2,2-trifluoroacetate] showed an IC50 of 110 nM.
Work on `COc1cc(Nc2nc3n(n2)CCCCC3c2ccc(F)cc2)ccc1-n1cnc(Cl)n1` (stereo not shown) [Example 33, N-(4-(3-chloro-1H-1,2,4-triazol-1-yl)-3-methoxyphenyl)-9-(4-fluorophenyl)-6,7,8,9-tetrahydro-5H-[1,2,4]triazolo[1,5-a]azepin-2-amine 2,2,2-trifluoroacetate] yielded an IC50 of 9 nM.

Same assay, conditions: 19 h, H4 APP751 SWE clone 8.20 cells, 19 h incubation; read-out: Activity Rating (based on Aβ42 cellular IC50 values)
`COc1cc(Nc2nc3n(n2)CCCCC3c2ccc(C#N)cc2)ccc1-n1cnc(Cl)c1` (stereo not shown) [Example 57, 4-(2-(4-(4-chloro-1H-imidazol-1-yl)-3-methoxyphenylamino)-6,7,8,9-tetrahydro-5H-[1,2,4]triazolo[1,5-a]azepin-9-yl)benzonitrile] was tested, and the IC50 was 10 to 100 nM.
With `COc1cc(Nc2nc3n(n2)CCCCC3c2cc(F)cc(F)c2)ccc1-n1cnc(Cl)c1` (stereo not shown) [Example 38, N-(4-(4-chloro-1H-imidazol-1-yl)-3-methoxyphenyl)-9-(3,5-difluorophenyl)-6,7,8,9-tetrahydro-5H-[1,2,4]triazolo[1,5-a]azepin-2-amine] the IC50 was < 10 nM.
`COc1cc(Nc2nc3n(n2)CCCC[C@H]3c2ccc(F)cc2)c(F)cc1-n1cnc(C)n1` [Example 29, (S)—N-(2-fluoro-5-methoxy-4-(3-methyl-1H-1,2,4-triazol-1-yl)phenyl)-9-(4-fluorophenyl)-6,7,8,9-tetrahydro-5H-[1,2,4]triazolo[1,5-a]azepin-2-amine] showed an IC50 of 10 to 100 nM.
`COc1cc(Nc2nc3n(n2)CCCC[C@@H]3c2ccc(OCC(F)F)cc2)ccc1-n1cnc(Cl)c1` (single isomer, unassigned) [Example 163] was tested, and the IC50 was 10 to 100 nM.
`COc1cc(Nc2nc3n(n2)CC[C@](C)(O)C[C@@H]3c2ccc(OC(F)(F)F)cc2)ccc1-n1cnc(Cl)c1` (relative stereo) [Example 152, rel-(7R,9R)-2-(4-(4-chloro-1H-imidazol-1-yl)-3-methoxyphenylamino)-7-methyl-9-(4-(trifluoromethoxy)phenyl)-6,7,8,9-tetrahydro-5H-[1,2,4]triazolo[1,5-a]azepin-7-ol 2,2,2-trifluoroacetate] was tested, and the IC50 was < 10 nM.
`Cc1ncn(-c2ccc(Nc3nc4n(n3)CCCC[C@@H]4c3ccc(OC(F)(F)F)cc3)cc2F)n1` (single isomer, unassigned) [Example 98] showed an IC50 of 10 to 100 nM.
`Cc1ncnn1-c1ccc(Nc2nc3n(n2)CC[C@@H](O)C[C@@H]3c2ccc(F)cc2)cc1F` (relative stereo) [Example 157, rel-(7S,9R)-2-(3-fluoro-4-(5-methyl-1H-1,2,4-triazol-1-yl)phenylamino)-9-(4-fluorophenyl)-6,7,8,9-tetrahydro-5H-[1,2,4]triazolo[1,5-a]azepin-7-ol 2,2,2-trifluoroacetate] showed an IC50 of 10 to 100 nM.
For `COc1cc(Nc2nc3n(n2)CCCC[C@H]3c2ccc(OC(C)C)cc2)ccc1-n1cnc(Cl)c1` (single isomer, unassigned) [Example 103], the IC50 was < 10 nM.
For `COc1cc(Nc2nc3c(s2)CC(N(C)C)CC3c2ccc(F)cc2)ccc1-n1cnc(Cl)c1` (stereo not shown) [Example 78, N2-(4-(4-chloro-1H-imidazol-1-yl)-3-methoxyphenyl)-4-(4-fluorophenyl)-N6,N6-dimethyl-4,5,6,7-tetrahydrobenzo[d]thiazole-2,6-diamine], the IC50 was 100 to 1000 nM.
With `Fc1ccc(C2CCCCn3nc(Nc4cc(F)c(-n5cnc(Cl)c5)c(F)c4)nc32)cc1` (stereo not shown) [Example 48, N-(4-(4-chloro-1H-imidazol-1-yl)-3,5-difluorophenyl)-9-(4-fluorophenyl)-6,7,8,9-tetrahydro-5H-[1,2,4]triazolo[1,5-a]azepin-2-amine] the IC50 was < 10 nM.
For `COc1cc(Nc2nc3n(n2)CCCCC3c2ccc(Br)cc2)ccc1-n1cnc(Cl)c1` (stereo not shown) [Example 170, 9-(4-bromophenyl)-N-(4-(4-chloro-1H-imidazol-1-yl)-3-methoxyphenyl)-6,7,8,9-tetrahydro-5H-[1,2,4]triazolo[1,5-a]azepin-2-amine], the IC50 was < 10 nM.
With `COc1cc(Nc2nc3n(n2)CCC(OC)(OC)CC3c2ccc(F)cc2)ccc1-n1cnc(Cl)c1` (stereo not shown) [Example 145, N-(4-(4-chloro-1H-imidazol-1-yl)-3-methoxyphenyl)-9-(4-fluorophenyl)-7,7-dimethoxy-6,7,8,9-tetrahydro-5H-[1,2,4]triazolo[1,5-a]azepin-2-amine] the IC50 was < 10 nM.
In the case of `Cc1ncnn1-c1ccc(Nc2nc3n(n2)CCCC[C@H]3c2ccc(OC(F)(F)F)cc2)cc1F` (single isomer, unassigned) [Example 100], the IC50 is reported as < 10 nM.
For `COc1cc(Nc2nc3c(s2)CC(OC)(OC)CC3c2ccc(F)cc2)ccc1-n1cnc(Cl)c1` (stereo not shown) [Example 84, N-(4-(4-chloro-1H-imidazol-1-yl)-3-methoxyphenyl)-4-(4-fluorophenyl)-6,6-dimethoxy-4,5,6,7-tetrahydrobenzo[d]thiazol-2-amine], the IC50 was 10 to 100 nM.
In the case of `Cc1ncnn1-c1ccc(Nc2nc3n(n2)CCCC[C@H]3c2ccc(OCC(F)(F)F)cc2)cc1F` (single isomer, unassigned) [Example 111], the IC50 is reported as < 10 nM.
`COc1cc(Nc2nc3n(n2)CCC(N2CCC2)CC3c2ccc(F)cc2)ccc1-n1cnc(Cl)c1` (stereo not shown) [Example 142, 7-(azetidin-1-yl)-N-(4-(4-chloro-1H-imidazol-1-yl)-3-methoxyphenyl)-9-(4-fluorophenyl)-6,7,8,9-tetrahydro-5H-[1,2,4]triazolo[1,5-a]azepin-2-amine] was tested, and the IC50 was 10 to 100 nM.
In the case of `COc1cc(Nc2nc3n(n2)CCCCC3c2cccc(F)c2)ccc1-n1cnc(Cl)c1` (stereo not shown) [Example 44, N-(4-(4-chloro-1H-imidazol-1-yl)-3-methoxyphenyl)-9-(3-fluorophenyl)-6,7,8,9-tetrahydro-5H-[1,2,4]triazolo[1,5-a]azepin-2-amine], the IC50 is reported as < 10 nM.
For `COc1cc(Nc2nc3n(n2)CC[C@](C)(O)C[C@@H]3c2ccc(F)cc2)ccc1-n1cnc(Cl)c1` (relative stereo) [Example 147, rel-(7R,9R)-2-(4-(4-chloro-1H-imidazol-1-yl)-3-methoxyphenylamino)-9-(4-fluorophenyl)-7-methyl-6,7,8,9-tetrahydro-5H-[1,2,4]triazolo[1,5-a]azepin-7-ol 2,2,2-trifluoroacetate], the IC50 was < 10 nM.
In the case of `COc1cc(Nc2nc3c(s2)CC(O)CC3c2ccc(F)cc2)ccc1-n1cnc(Cl)c1` (stereo not shown) [Example 76, 2-(4-(4-chloro-1H-imidazol-1-yl)-3-methoxyphenylamino)-4-(4-fluorophenyl)-4,5,6,7-tetrahydrobenzo[d]thiazol-6-ol], the IC50 is reported as < 10 nM.
For `COc1cc(Nc2nc3n(n2)CCCC[C@@H]3c2cccc(Cl)c2)ccc1-n1cnc(Cl)c1` (single isomer, unassigned) [Example 55], the IC50 was < 10 nM.
`CNC1Cc2sc(Nc3ccc(-n4cnc(Cl)c4)c(OC)c3)nc2C(c2ccc(F)cc2)C1` (stereo not shown) [Example 79, N2-(4-(4-chloro-1H-imidazol-1-yl)-3-methoxyphenyl)-4-(4-fluorophenyl)-N-6-methyl-4,5,6,7-tetrahydrobenzo[d]thiazole-2,6-diamine] showed an IC50 of 10 to 100 nM.
Compound `Cc1ncnn1-c1ccc(Nc2nc3n(n2)CCCC3c2ccc(F)cc2)cc1F` (stereo not shown) [Example 13, N-(3-fluoro-4-(5-methyl-1H-1,2,4-triazol-1-yl)phenyl)-8-(4-fluorophenyl)-5,6,7,8-tetrahydro-[1,2,4]triazolo[1,5-a]pyridin-2-amine] has an IC50 of 10 to 100 nM.

Same assay, conditions: H4 APP751 SWE clone 8.20 cells, 19 h incubation; read-out: Activity Rating (based on Aβ42 cellular IC50 values)
In the case of “(R)—N-(3-fluoro-4-(5-methyl-1H-1,2,4-triazol-1-yl)phenyl)-9-(4-fluorophenyl)-6,7,8,9-tetrahydro-5H-[1,2,4]triazolo azepin-2-amine [Example 95]”, the IC50 is reported as 10 to 100 nM.
